Values quoted from earlier work as cited in patent publication US20220313614A1, “EN[…] […] AND METHODS OF PREPARATION THEREOF” (Altria Client Services LLC, priority 2021, published 2022).

Settings: free base (non-protonated)

SMILES: CN1CCCC1c1cccnc1 (stereo not shown) [Free-base nicotine, 3-(1-methyl-2-pyrrolidinyl) pyridine]
- pKa value: about 8
